{
  "source": "patent US20260226103A1",
  "about": "“MODIFIED AMINO ACIDS AND USES THEREOF” (priority 2022, published 2026)",
  "key": {"HeLa cells [1]": {"system": "HeLa cells", "assay": "Cell uptake of FITC-peptides by flow cytometry", "assay_type": "cell-based", "settings": "for time of maximum uptake: 37° C., 1 hr vs 4 hr", "description": "(§2) HeLa and U2OS cells were maintained in medium consisting of Dulbecco's modified Eagle's medium (DMEM), 10% FBS, 1% L-Glutamine and 1% penicillin/streptomycin at pH 7.4. […] Cells were cultured in a humidified incubator at 37° C. with 5% CO2 atmosphere.\nHeLa or U2OS cells were cultured in 24 well plates (4.5×10^5 cells per well) for 24 h. On the day of the experiment, the cells were incubated with 5 μM FITC-peptide in DMEM with 10% FBS at 37° C. or 4° C. for required time. The media was then removed and wells were washed with PBS (2×500 μL per well) and then detached from the plate with TrypLE Xpress (500 μL per well). PBS containing 2% bovine serum albumin (500 μL) was added to each well and cells transferred to 5 mL polystyrene FACS tubes. Cells were centrifuged (5 min, 5000 rpm) and washed with PBS containing 2% bovine serum albumin (2×500 μL) before being suspended in PBS containing 2% bovine serum albumin (1.00 mL per FACS tube).\n(§3) Cells were finally analysed on a Thermo fisher Attune NxT flow cytometer with laser excitation/emission set at 490 nm/519 nm and a flow rate of 200 μL min^−1. Flow cytometry data was analysed using FlowJo software with gating set at a range of 51K-285K side scatter and 251K-815K for forward scatter variance for every sample. Median fluorescence intensity values were calculated from the gating range using FlowJo.\n(§4) Median fluorescence values reported were normalised by subtracting average background fluorescence at 490 nm/519 nm of a set of untreated cells (ran with every experiment) from the value of each FITC labelled peptide."}, "HeLa cells [2]": {"system": "HeLa cells", "assay": "Cellular distribution by confocal microscopy", "assay_type": "cell-based", "settings": "5 μM fluorescein-tagged CPP, 4 h", "experimental": "HeLa cells were cultured in 8 well plates (Ibidi plates) (3.5×10^4 cells per well) for 24 h. […] After 3.5 h incubation, Hoescht 33258 was added at a concentration of 5.6 μM and cells incubated at 37° C. for the final 0.5 h. Cells were removed from the incubator and media removed. Each well was then washed with serum and phenol red free media (2×200 μL) then incubated with 4% formaldehyde in PBS (200 μL) for 20 min at room temperature. After incubation the 4% formaldehyde solution was removed and PBS (200 μL) added to each well. The cells were then imaged using a Leica S8 confocal microscope. Excitation/emission was set at 352 nm/461 nm for Hoescht 33258 imaging and 495 nm/519 nm for FITC labelled peptides. Images were processed using ImageJ software. Images were ‘rolling ball’ averaged across the set for each channel to remove background fluorescence."}, "U2OS cells": {"system": "U2OS cells", "settings": "U2OS cell line", "description": "as §2\nHeLa or U2OS cells were cultured in 24 well plates (4.5×10^5 cells per well) for 24 h. On the day of the experiment, the cells were incubated with 5 μM FITC-peptide in DMEM with 10% FBS at 37° C. or 4° C. for required time. The media was then removed and wells were washed with PBS (2×500 μL per well) and then detached from the plate with TrypLE Xpress (500 μL per well). PBS containing 2% bovine serum albumin (500 μL) was added to each well and cells transferred to 5 mL polystyrene FACS tubes. […]\nas §3, §4"}, "HeLa cells [3]": {"system": "HeLa cells", "assay": "Cell viability AlamarBlue assay", "assay_type": "cell-based", "settings": "for cytotoxicity / tolerability (in words): HeLa cells, at or up to 100 μM", "experimental": "(§1) HeLa, U2OS or HepG2 cells were cultured in 96 well plates (2.6×10^3 cells per well) for 24 h. […] The experiments were performed in triplicate for each concentration. AlamarBlue® was then added to each well (0.5 mM, 10 μL, 10% v/v) and incubated for a further 6 h for HeLa and HepG2 cells and 24 h for U2OS cells. Cells were then analysed using a HIdex plate reader with laser excitation/emission set at 560 nm/595 nm. Fluorescence of untreated cells were used as a 100% viable control, with 1% Triton X used as a negative control, and viability of cells were calculated as a percentage of the control fluorescence values using OriginPro 2019b software."}, "[4]": {"assay": "Cell viability AlamarBlue assay", "assay_type": "cell-based", "settings": "human, HeLa cells, 24 h", "experimental": "as §1"}, "[5]": {"settings": "pH of 7.4; cited from earlier work"}},
  "note": "Square brackets hold non-standard residues; d marks the D form. Peptide text beside a SMILES is read from it. * marks the point of attachment. X1 = O=C(O)c1cc(NC(=S)*)ccc1-c1c2ccc(=O)cc-2oc2cc(O)ccc12; aIle = CC[C@@H](C)[C@H](N)C(=O)O; dCit = NC(=O)NCCC[C@@H](N)C(=O)O; X2 = N=C(N)c1ccc(C(=O)*)cc1; Dap = NC[C@H](N)C(=O)O; Ahx = NCCCCCC(=O)O; βAla = NCCC(=O)O",
  "data": [
    {"molecule": "CC[C@@H](C)[C@H](NC(=O)[C@H](CC(C)C)NC(=O)[C@@H]1CCCN1C(=O)CCCCCNC(=S)Nc1ccc(-c2c3ccc(=O)cc-3oc3cc(O)ccc23)c(C(=O)O)c1)C(=O)N[C@@H](Cc1ccc(O)cc1)C(=O)N[C@@H](CC(C)C)C(=O)N[C@@H](CNC(=O)c1ccc(C(=N)N)cc1)C(=O)N[C@@H](CC(C)C)C(=O)N[C@@H](CC(C)C)C(=O)N[C@@H](CNC(=O)c1ccc(C(=N)N)cc1)C(=O)NCC(N)=O", "note": "[Am-TP-2, FITC-XPLIYLAmLLAmG] ({X1-Ahx}-PL[aIle]YL[Dap](X2)LL[Dap](X2)G-NH2)", "values": [
      {"measurement": "decrease in cellular uptake at 4° C. relative to 37° C.", "setting": "HeLa cells [1]", "result": 30, "unit": "fold"},
      {"measurement": "uptake at 4 hr incubation relative to 1 hr (in words)", "setting": "HeLa cells [1]", "result": "enhanced uptake"},
      {"measurement": "increase in uptake relative to TP-2", "setting": "HeLa cells [1]; 5 μM FITC-peptide", "result": 4, "unit": "fold"},
      {"measurement": "cellular distribution profile (in words)", "setting": "HeLa cells [2]", "result": "cytoplasmic distribution profile"},
      {"measurement": "uptake trend (in words)", "setting": "U2OS cells", "result": "enhanced uptake"}
    ]},
    {"molecule": "CC(C)C[C@H](NC(=O)[C@H](CC(C)C)NC(=O)[C@H](CCCNC(=N)N)NC(=O)[C@H](CCCNC(=N)N)NC(=O)[C@H](CC(C)C)NC(=O)[C@H](CC(C)C)NC(=O)[C@H](CCCNC(=N)N)NC(=O)CCCCCNC(=S)Nc1ccc(-c2c3ccc(=O)cc-3oc3cc(O)ccc23)c(C(=O)O)c1)C(=O)N[C@@H](CCCNC(=N)N)C(N)=O", "note": "[Pep-2, FITC-XRLLRRLLR] (HELM PEPTIDE1{[O=C(O)c1cc(NC(=S)[*:2])ccc1-c1c2ccc(=O)cc-2oc2cc(O)ccc12].[O=C(CCCCCN[*:1])[*:2]].R.L.L.R.R.L.L.R.[am]}$$$$V2.0)", "values": [
      {"measurement": "cytotoxicity relative to Pep-1 (in words)", "setting": "HeLa cells [3]; at 100 M (so in the source)", "result": "displaying cytotoxicity"}
    ]},
    {"molecule": "CC[C@H](C)[C@H](NC(=O)[C@H](CC(C)C)NC(=O)[C@H](Cc1ccccc1)NC(=O)[C@H](CCC(N)=O)NC(=O)[C@H](Cc1ccc(O)cc1)NC(=O)[C@H](CCCNC(=N)N)NC(=O)[C@H](CCCNC(=N)N)NC(=O)CCNC(=O)[C@H](CCCNC(=N)N)NC(=O)[C@H](CCCNC(=N)N)NC(=O)CCCCCNC(=O)[C@H](CCCNC(=N)N)NC(=O)CCCCCNC(=S)Nc1ccc(-c2c3ccc(=O)cc-3oc3cc(O)ccc23)c(C(=O)O)c1)C(=O)N[C@@H](CCCNC(=N)N)C(=O)NCCC(=O)N[C@@H](CCCNC(=N)N)C(=O)NCCCCCC(=O)N[C@@H](CCCNC(=N)N)C(N)=O", "note": "[PiP6, FITC-XRXRRBRRYQFLIRBRXR] ({X1-Ahx}-R[Ahx]RR[βAla]RRYQFLIR[βAla]R[Ahx]R-NH2)", "values": [
      {"measurement": "viability at 24 h, 30 µM", "setting": "[4]; 30 μM FITC-peptide", "result": 15, "unit": "%"},
      {"measurement": "viability at 24 h, 100 µM", "setting": "[4]; 100 μM FITC-peptide", "result": 5, "unit": "%"},
      {"measurement": "time of maximum uptake", "setting": "HeLa cells [1]; 5 μM FITC-peptide", "result": 1, "unit": "h"},
      {"measurement": "cellular distribution profile (in words)", "setting": "HeLa cells [2]", "result": "high level of accumulation within the nucleus"}
    ]},
    {"molecule": "CC[C@@H](C)[C@H](NC(=O)[C@H](CC(C)C)NC(=O)[C@@H]1CCCN1C(=O)CCCCCNC(=S)Nc1ccc(-c2c3ccc(=O)cc-3oc3cc(O)ccc23)c(C(=O)O)c1)C(=O)N[C@@H](CC(C)C)C(=O)N[C@@H](CC(C)C)C(=O)N[C@@H](CCCNC(=N)N)C(=O)N[C@@H](CC(C)C)C(=O)N[C@@H](CC(C)C)C(=O)N[C@@H](CCCNC(=N)N)C(=O)NCC(N)=O", "note": "[TP-1, FITC-XPLILLRLLRG] ({X1-Ahx}-PL[aIle]LLRLLRG-NH2)", "values": [
      {"measurement": "cytotoxicity / tolerability (in words)", "setting": "HeLa cells [3]", "result": "well tolerated"},
      {"measurement": "cellular distribution profile (in words)", "setting": "HeLa cells [2]", "result": "extensively distributed throughout the cytoplasm"}
    ]},
    {"molecule": "CC[C@@H](C)[C@H](NC(=O)[C@H](CC(C)C)NC(=O)[C@@H]1CCCN1C(=O)CCCCCNC(=S)Nc1ccc(-c2c3ccc(=O)cc-3oc3cc(O)ccc23)c(C(=O)O)c1)C(=O)N[C@@H](Cc1ccc(O)cc1)C(=O)N[C@@H](CC(C)C)C(=O)N[C@@H](CCCNC(=N)N)C(=O)N[C@@H](CC(C)C)C(=O)N[C@@H](CC(C)C)C(=O)N[C@@H](CCCNC(=N)N)C(=O)NCC(N)=O", "note": "[TP-2, FITC-XPLIYLRLLRG] ({X1-Ahx}-PL[aIle]YLRLLRG-NH2)", "values": [
      {"measurement": "cytotoxicity / tolerability (in words)", "setting": "HeLa cells [3]", "result": "well tolerated"},
      {"measurement": "cellular distribution profile (in words)", "setting": "HeLa cells [2]", "result": "extensively distributed throughout the cytoplasm"}
    ]},
    {"molecule": "CC[C@@H](C)[C@H](NC(=O)[C@H](CC(C)C)NC(=O)[C@@H]1CCCN1C(=O)CCCCCNC(=S)Nc1ccc(-c2c3ccc(=O)cc-3oc3cc(O)ccc23)c(C(=O)O)c1)C(=O)N[C@@H](Cc1ccc(O)cc1)C(=O)N[C@@H](CC(C)C)C(=O)N[C@H](CCCCN)C(=O)N[C@@H](CC(C)C)C(=O)N[C@@H](CC(C)C)C(=O)N[C@H](CCCCN)C(=O)NCC(N)=O", "note": "[TP-3, FITC-XPLIYLKLLKG] ({X1-Ahx}-PL[aIle]YL[dK]LL[dK]G-NH2)", "values": [
      {"measurement": "cell uptake relative to TP-2 (in words)", "setting": "HeLa cells [1]; 5 μM FITC-peptide", "result": "no difference in cell uptake"}
    ]},
    {"molecule": "CC[C@@H](C)[C@H](NC(=O)[C@H](CC(C)C)NC(=O)[C@@H]1CCCN1C(=O)CCCCCNC(=S)Nc1ccc(-c2c3ccc(=O)cc-3oc3cc(O)ccc23)c(C(=O)O)c1)C(=O)N[C@@H](Cc1ccc(O)cc1)C(=O)N[C@@H](CC(C)C)C(=O)N[C@H](CCCNC(N)=O)C(=O)N[C@@H](CC(C)C)C(=O)N[C@@H](CC(C)C)C(=O)N[C@H](CCCNC(N)=O)C(=O)NCC(N)=O", "note": "[TP-4, FITC-XPLIYLCitLLCitG] ({X1-Ahx}-PL[aIle]YL[dCit]LL[dCit]G-NH2)", "values": [
      {"measurement": "cell uptake relative to TP-2 (in words)", "setting": "HeLa cells [1]; 5 μM FITC-peptide", "result": "reduction in cellular uptake"}
    ]},
    {"molecule": "CC[C@@H](C)[C@H](NC(=O)[C@H](CC(C)C)NC(=O)[C@@H]1CCCN1C(=O)CCCCCNC(=S)Nc1ccc(-c2c3ccc(=O)cc-3oc3cc(O)ccc23)c(C(=O)O)c1)C(=O)N[C@@H](Cc1ccc(O)cc1)C(=O)N[C@@H](CC(C)C)C(=O)N[C@H](CCCNC(=N)N)C(=O)N[C@@H](CC(C)C)C(=O)N[C@@H](CC(C)C)C(=O)N[C@H](CCCNC(=N)N)C(=O)NCC(N)=O", "note": "[TP-5, FITC-XPLIYLrLLrG] ({X1-Ahx}-PL[aIle]YL[dR]LL[dR]G-NH2)", "values": [
      {"measurement": "cell uptake relative to TP peptides containing L-Arg (TP-1 and TP-2) (in words)", "setting": "HeLa cells [1]; 5 μM FITC-peptide", "result": "enhanced uptake"},
      {"measurement": "cell uptake relative to TP-2 (in words)", "setting": "HeLa cells [1]; 5 μM FITC-peptide", "result": "further reduction in uptake"}
    ]},
    {"molecule": "N=C(N)NCCC[C@H](NC(=O)[C@H](CCCNC(=N)N)NC(=O)[C@H](CCCNC(=N)N)NC(=O)[C@H](CCC(N)=O)NC(=O)[C@H](CCCNC(=N)N)NC(=O)[C@H](CCCNC(=N)N)NC(=O)[C@H](CCCCN)NC(=O)[C@H](CCCCN)NC(=O)[C@H](CCCNC(=N)N)NC(=O)CCCCCNC(=S)Nc1ccc(-c2c3ccc(=O)cc-3oc3cc(O)ccc23)c(C(=O)O)c1)C(N)=O", "note": "[Tat, FITC-XRKKRRQRRR]", "values": [
      {"measurement": "cytotoxicity / tolerability (in words)", "setting": "HeLa cells [3]", "result": "moderate levels of toxicity"},
      {"measurement": "time of maximum uptake", "setting": "HeLa cells [1]; 5 μM FITC-peptide", "result": 1, "unit": "h"},
      {"measurement": "cellular distribution profile (in words)", "setting": "HeLa cells [2]", "result": "accumulating in puncta"}
    ]},
    {"molecule": "N=C(N)NCCC[C@H](N)C(=O)O", "note": "[arginine]", "values": [
      {"measurement": "Log D or c Log D", "setting": "[5]", "result": "approximately −3.5"}
    ]}
  ]
}
